Legend:
Type in all cases: cell-based, Human
[1] = tested on: A875; assay: MTT inhibition of tumor cells in vitro (Example 3); conditions: 40 μg/mL, 48 hours
Protocol: (§1) Human resources tumor cell line […], […], HT29, MCF-7 and A875 were provided by Cancer Hospital, Chinese Academy of Medical Sciences.
(§2) Cells were passaged every 2 or 3 days, and all the experiments were carried out on exponentially growing cells.
(§3) All cells were cultured in a humidified atmosphere (5% CO2 and […]), and passaged every 2 or 3 days. Cells were harvested on exponentially growing phase, and cell suspension was prepared with 2×10^4 cells/mL, added with 100 μL per well of 96-well plates, and cultured for 24 h in incubator. 100 μL medium without cells was added per well as blank group.
(§4) Compound (1), (2), (3), (4), (7) or (8) was dissolved in DMSO respectively, and diluted with 1640 medium at a final concentration of 400 μg/mL, so as to that of the Cisplatin. Cells were divided into 9 groups, they were blank group, model group, Compound (1), (2), (3), (4), (7) and (8) groups, and Cisplatin group as the positive one, 6 wells per group.
(§5) Before drug administration, supernatant of each well was removed and fresh 1640 medium was added, 180 μL per well. Compounds and Cisplatin were added with 20 μL per well respectively at a final concentration of 40 μg/mL. Wells of blank and model groups were added with 0.5% DMSO, 20 μL per well. 48 hours later, 20 μL MTT was added per well and continued to culture for 4 hours, then the supernatant was replaced carefully and DMSO was added with 150 μL per well to end the experiment. The 96-well plates were shaken for 10 mins and read the absorbance at 490 nm. The Inhibition rate was calculated.
(§6) Inhibition rate=[(ODmodel−ODblank)−(ODdrugs−ODblank)]/(ODmodel−ODblank)×100%
(§7) The MTT experiment was repeated three times.

[2] = tested on: BGC823; assay: MTT inhibition of tumor cells in vitro (Example 3); conditions: 40 μg/mL, 48 hours
Protocol: as §1, §2, §3, §4, §5, §6, §7

[3] = tested on: HT29; assay: MTT inhibition of tumor cells in vitro (Example 3); conditions: 40 μg/mL, 48 hours
Protocol: as §1, §2, §3, §4, §5, §6, §7

[4] = tested on: MCF-7; assay: MTT inhibition of tumor cells in vitro (Example 3); conditions: 40 μg/mL, 48 hours
Protocol: as §1, §2, §3, §4, §5, §6, §7

[5] = tested on: HepG2; assay: MTT inhibition of tumor cells in vitro (Example 3); conditions: 40 μg/mL, 48 hours
[6] = tested on: HepG2; assay: Inhibitory activity and IC50 to HepG2 at different time of treatment (MTT, Example 4); conditions: HepG2, 40 μg/ml
Protocol: Human resources hepatoma cell line HepG2 was provided by Cancer Hospital, Chinese Academy of Medical Sciences. […] Cells were passaged every 2 or 3 days, and all the experiments were carried out on exponentially growing cells.
Cells were harvested in good growth status and cell suspension was prepared with 2×10^4 cells/mL, added 100 μL per well of 96-well plates, and cultured for 24 h in the incubator. 100 μL liquid medium with no cell was added per well as blank group.
3 plates were used as parallel test to culture cells at different period.
Before medication, supernatant of each well was removed and fresh 1640 medium was added, 180 μL per well. […] Wells of blank and model groups were added with 0.5% DMSO, 20 μL per well. After finished adding drugs, cells were incubated for 24 and 48 h respectively. At the end of incubation, 20 μL MTT was added per well […]. The supernatant was removed carefully and 150 μL DMSO was added per well. After shaken for 10 mins, the absorbance was read at 490 nm and the inhibition rate was calculated with the formula below.
as §6
IC50 was calculated with Bliss method.
as §7

`N.N.[Cl][Pt][Cl]` [Cisplatin, reference compound] was tested, and the “Inhibition rate, A875” value [1] was 90.13 ± 1.98%, the “Inhibition rate, BGC823” value [2] was 97.86 ± 4.12% and the “Inhibition rate, HT29” value [3] was 99.04 ± 1.15%. For the same compound, the “Inhibition rate, MCF-7” value [4] was 97.53 ± 2.05%, the “Inhibition rate, HepG2” value [5] was 82.15 ± 4.05% and the “Inhibition rate” value ([6]; 24 h) was 47.94 ± 6.328%. For the same compound, the “Inhibition rate” value ([6]; 48 h) was 99.45 ± 0.36%.
